# Assay results published in patent US4481201A, “Pharmaceutical composition containing N,N^3 -di-(β-bromopropionyl)-N^1,N^2 -dispirotripiperazinium dichloride” (Vsesojuzny Nauchno-Issledovatelsky Khimoko-Farmasevtichesky …, priority 1981, dated 1984).
# How the values were obtained:
# [1] = Growth of graft sarcoma 45 in rats; assay type: in vivo; settings: rat, in vivo, ip, rats with sarcoma 45, repeated intraperitoneal administration; read-out: Maximum tolerable dose (MTD)
# Text: (§1) The antitumor activity has been studied on white rats weighing 110-130 g, as well as on white noninbred and inbred mice weighing 17-21 g with ligated tumors. The treatment is started 5-7 days transplanting of solid tumors and the following day after the transplanting of leukotic strains. Use has been made of the following transplantable strains of the tumors:
# (§2) (1) rats: Ienssen's sarcoma, sarcoma 45, sarcoma M-1, sarcoma 536;
# (§3) The compounds of the general formula (I), wherein X represents Cl^- (compound 1), Br^- (compound 2) are well-soluble in an isotonic solution of sodium chloride and they are administered intraperitoneally. The doses of the compounds have been calculated in mg per kg of the animal bodyweight.
# [2] = test system: sarcoma 45; test: Growth of graft sarcoma 45 in rats; assay type: in vivo; settings: rats
# Text: as §1, §2, §3
# [3] = Growth of graft sarcoma 180 in mice; assay type: in vivo, noninbred white mice; settings: mouse, in vivo, ip; mice with sarcoma 180, repeated intraperitoneal administration; read-out: Maximum tolerable dose (MTD)
# Text: as §1
# (§4) (2) noninbred white mice: sarcoma 180, sarcoma AK, sarcoma 37, carcinoma HK;
# as §3
# [4] = test system: sarcoma 180; test: Growth of graft sarcoma 180 in mice; assay type: in vivo, noninbred white mice; settings: mice; for It, % tumor growth suppression index / Change in the animal body weight, test: 6 injections
# Text: as §1, §4, §3
# [5] = Growth of graft sarcoma 37 in mice; assay type: in vivo, noninbred white mice; settings: mouse, in vivo, ip; mice with sarcoma 37, repeated intraperitoneal administration; read-out: Maximum tolerable dose (MTD)
# Text: as §1, §4, §3
# [6] = test system: sarcoma 37; test: Growth of graft sarcoma 37 in mice; assay type: in vivo, noninbred white mice; settings: mice
# Text: as §1, §4, §3
# [7] = test system: leukemia La; test: Life span of mice with transplantable leukemia La; assay type: in vivo, inbred mice
# Text: as §1
# (3) inbred mice: leukemia La, leukemia L1210 and P-388.
# The activity of compounds relative to leukosis has been assessed by the life span (It) of treated animals as compared to the control ones. It --index of suppression of leukosis development is calculated by the formula: [formula]
# [8] = Toxicity on single and repeated administration to mice; assay type: in vivo
# Description: (3) acute toxicity of the compounds upon a single and repeated administration to white noninbred mice places into standard cages with 8 animals in each.
# In the investigation of toxic properties of the compounds according to the present invention there has been determined the absolutely lethal dose (DL95), average lethal dose (DL50) and MTD. For compounds 1 and 2 there were determined DL95 and DL50 on healthy white mice with the body mass of 18-21 g at a single and repeated (once a day, daily for 7 days) intraperitoneal administration.
# [9] = Withdrawal of radioactivity from the rats' organism; assay type: in vivo; design: concentration or dose not given beside the values; settings: C^14-labeled
# Text: In the case of administration of the preparation according to the present invention labeled with C^14, a higher level of radioactivity in blood is observed than in the case of prospidin labeled with C^14. A higher rate of accumulation of the preparation according to the present invention as compared to prospidin is observed in larynx, windpipe, bronchi, bone marrow, tumor and thyroid gland. The preparation according to the present invention labeled with C^14 is withdrawn from the organism within 24 hours after the intravenous administration mainly with urine, while C^14 --labeled prospidin is retained in the organism for a longer period.
# [10] = Solubility; assay type: physicochemical
# Description: as §3
# To a mixture of 3 g of N^1,N^2 -dispirotripiperazinium dichloride, 1.5 g of lithium hydroxide, 1 ml of water and 10 ml of ether a solution of 5.2 g of β-bromopropionic acid chlorid in 5 ml of ether is added under vigorous stirring and at a temperature of 5° to 10° C. The reaction mass is stirred for 2 hours at the temperature of 15° C. The residue is filtered off, dissolved in 10 ml of water; the resulting aqueous solution is poured in 100 ml of methanol.
# [11] = 50 mg/kg intraperitoneally, 7 injections
# [12] = 80 mg/kg intraperitoneally, 5 injections
# [13] = 75 mg/kg intraperitoneally, 7 injections
# [14] = mice with transplantable leukemia La
# [15] = mice, repeated intraperitoneal administration (once a day, daily for 7 days)
# [16] = mice, repeated intraperitoneal administration (once a day, daily for 7 days), listed as Preparation of the invention
# [17] = mice, single intraperitoneal administration
# [18] = 24 hours after intravenous administration
compound,measurement,setting,value
"O=C(CCBr)N1CC[N+]2(CC1)CC[N+]1(CCN(C(=O)CCBr)CC1)CC2 [Compound 1, N,N^3 -di-(β-bromopropionyl)-N^1,N^2 -dispirotripiperazinium dichloride]",MTD,[1],125 mg/kg
same,"Change in the animal body weight, test","[2]; 20 mg/kg intraperitoneally, 7 injections",-12 g
same,"It, % tumor growth suppression index","[2]; 20 mg/kg intraperitoneally, 7 injections, 20 mg/kg",0%
same,"Change in the animal body weight, test",[2]; [11],-8 g
same,"It, % tumor growth suppression index",[2]; [11],+61%
same,"Change in the animal body weight, test",[2]; [12],-9 g
same,"It, % tumor growth suppression index",[2]; [12],+99%
same,"Change in the animal body weight, test","[2]; 125 mg/kg intraperitoneally (MTD), 5 injections",-3 g
same,MTD,[3],262 mg/kg
same,"tumor growth suppression class, Sarcoma 180",[4],++ (tumor growth suppression by 80-95%)
same,"It, % tumor growth suppression index",[4]; 25 mg/kg intraperitoneally,+42%
same,"Change in the animal body weight, test",[4]; 75 mg/kg intraperitoneally,-4 g
same,"It, % tumor growth suppression index","[4]; 75 mg/kg intraperitoneally, 75 mg/kg",+74%
same,"It, % tumor growth suppression index","[4]; 75 mg/kg intraperitoneally, listed as preparation of the invention, 75 mg/kg",74%
same,"Change in the animal body weight, test",[4]; 262 mg/kg intraperitoneally (MTD),-6 g
same,MTD,[5],277 mg/kg
same,"Change in the animal body weight, test",[6]; [13],-2 g
same,"It, % tumor growth suppression index",[6]; [13],+74%
same,"It, % tumor growth suppression index","[6]; 150 mg/kg intraperitoneally, 5 injections",+53%
same,"Change in the animal body weight, test","[6]; 277 mg/kg intraperitoneally (MTD), 6 injections",-4 g
same,extension of life span of treated mice as compared to the control,"[7]; leukemia La, MTD",3 times
same,"It, % index of suppression of leukosis development",[7]; [14],218%
same,Life span,[7]; [14],21.2 ± 0.1 days
same,toxicity in comparison with prospidin,"[8]; less toxic than prospidin, DL50 single administration to mice",2 times
same,Ik index of toxic effect cumulation,"[8]; mice, intraperitoneal administration",82
same,DL50 (average lethal dose),[8]; [15],444 mg/kg
same,DL95 (absolutely lethal dose),[8]; [15],577 mg/kg
same,DL50 (average lethal dose),[8]; [16],444 mg/kg
same,DL95 (absolutely lethal dose),[8]; [16],577 mg/kg
same,DL50 (average lethal dose),[8]; [17],"1,924 mg/kg"
same,DL95 (absolutely lethal dose),[8]; [17],"2,272 mg/kg"
same,DL95 (absolutely lethal dose),"[8]; mice, single intraperitoneal administration, listed as Preparation of the invention",2272 mg/kg
same,DL50 (average lethal dose),"[8]; mice, single intraperitoneal administration, listed as preparation according to the present invention","1,924 mg/kg"
same,LD50,"[8]; mouse, in vivo, ip, mice, single intraperitoneal administration, read-out: DL50 (average lethal dose)",1920 mg/kg
same,MTD,"[8]; mouse, in vivo, ip, repeated intraperitoneal administration, read-out: MTD",149 mg/kg
same,"Withdrawal of radioactivity, Feces",[9]; [18],1.6%
same,"Withdrawal of radioactivity, Total",[9]; [18],99.9%
same,"Withdrawal of radioactivity, Urina",[9]; [18],98.3%
same,"Withdrawal of radioactivity, Urina",[9]; within 3 hours after intravenous administration,80.7%
same,solubility in an isotonic solution of sodium chloride,[10],well-soluble
same,solubility in organic solvents,[10],substantially insoluble
same,solubility in water,[10],well soluble
